20 molecules from patent US12685735B2 (Foghorn Therapeutics Inc., priority 2020, dated 2026) can be followed below.

The term IC50 denotes the concentration needed to halve the response being measured.

For experiment [1], the target named is BRM (Homo sapiens, UniProt P51531). The experiment is described as follows: ATPase catalytic activity assay of BRM (ADP-Glo). It is filed as biochemical. Particulars: for IC50: read-out: BRM IC50 (μM)*. An outline of the steps:
(§1)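 ATPase activity of BRG-1 or BRM was read by ADP-Glo. Residual ATP was depleted (40 min, room temperature), then ADP was converted to ATP (60 min, room temperature) and measured as luciferase luminescence.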
(ADP-Glo turns the ADP formed in a reaction into a luminescent signal.)

Experiment [2] has as its target BRG-1 (Homo sapiens, UniProt P51532). The experiment is described as follows: ATPase catalytic activity assay of BRG-1 (ADP-Glo). The format is biochemical. Particulars: for IC50: read-out: BRG1 IC50 (μM)*. An outline of the steps:
as §1

The mark [3] stands for this setting: ATPase catalytic activity, ADP-Glo.
Setting [4] is: ATPase catalytic activity, ADP-Glo, read-out: BRG1 Max % Inhibition.

Read-outs that look alike come from different tables or passages of the source.

BRG-1, sequence (P51532 whole entry): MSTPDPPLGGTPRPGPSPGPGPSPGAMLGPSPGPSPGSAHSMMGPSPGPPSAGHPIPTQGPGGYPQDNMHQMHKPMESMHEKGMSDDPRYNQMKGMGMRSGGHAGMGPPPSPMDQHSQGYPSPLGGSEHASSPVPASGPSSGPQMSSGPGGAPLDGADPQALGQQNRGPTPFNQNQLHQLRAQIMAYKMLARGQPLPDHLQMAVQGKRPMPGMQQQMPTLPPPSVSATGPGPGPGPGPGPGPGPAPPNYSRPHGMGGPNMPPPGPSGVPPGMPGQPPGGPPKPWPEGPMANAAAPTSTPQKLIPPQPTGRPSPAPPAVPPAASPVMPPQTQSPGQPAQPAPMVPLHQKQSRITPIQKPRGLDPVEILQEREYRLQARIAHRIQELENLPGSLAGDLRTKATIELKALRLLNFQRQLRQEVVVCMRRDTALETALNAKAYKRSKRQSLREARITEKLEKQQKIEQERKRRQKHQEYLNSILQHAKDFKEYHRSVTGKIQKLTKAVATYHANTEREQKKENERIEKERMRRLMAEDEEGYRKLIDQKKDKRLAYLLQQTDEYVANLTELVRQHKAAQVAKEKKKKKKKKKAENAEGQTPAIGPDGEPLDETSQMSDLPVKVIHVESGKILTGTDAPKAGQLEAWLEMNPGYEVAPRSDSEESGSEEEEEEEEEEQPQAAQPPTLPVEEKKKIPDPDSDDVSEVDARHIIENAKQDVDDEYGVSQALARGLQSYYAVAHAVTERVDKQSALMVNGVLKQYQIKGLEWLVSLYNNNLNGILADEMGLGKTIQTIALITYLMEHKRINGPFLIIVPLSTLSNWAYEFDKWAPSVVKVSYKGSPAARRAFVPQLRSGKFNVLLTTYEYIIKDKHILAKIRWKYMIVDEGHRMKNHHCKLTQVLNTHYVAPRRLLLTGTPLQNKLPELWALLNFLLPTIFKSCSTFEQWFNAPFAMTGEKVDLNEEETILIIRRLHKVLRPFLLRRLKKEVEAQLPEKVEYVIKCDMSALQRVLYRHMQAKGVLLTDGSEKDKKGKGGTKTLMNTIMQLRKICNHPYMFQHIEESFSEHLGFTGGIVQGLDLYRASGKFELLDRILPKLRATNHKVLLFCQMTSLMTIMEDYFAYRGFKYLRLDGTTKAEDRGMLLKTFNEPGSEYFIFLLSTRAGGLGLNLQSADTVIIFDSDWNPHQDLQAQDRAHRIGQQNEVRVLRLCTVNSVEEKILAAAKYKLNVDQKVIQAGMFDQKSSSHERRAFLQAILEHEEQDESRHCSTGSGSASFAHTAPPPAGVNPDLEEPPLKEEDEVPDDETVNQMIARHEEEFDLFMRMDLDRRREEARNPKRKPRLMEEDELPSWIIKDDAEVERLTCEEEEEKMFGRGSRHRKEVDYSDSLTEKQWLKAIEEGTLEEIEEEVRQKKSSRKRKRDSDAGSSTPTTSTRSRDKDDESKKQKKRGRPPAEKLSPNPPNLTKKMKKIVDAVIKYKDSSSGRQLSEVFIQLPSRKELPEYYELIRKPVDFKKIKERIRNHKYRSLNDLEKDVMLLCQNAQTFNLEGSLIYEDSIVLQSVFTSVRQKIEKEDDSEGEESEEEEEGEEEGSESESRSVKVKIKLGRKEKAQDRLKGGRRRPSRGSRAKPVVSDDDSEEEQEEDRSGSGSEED
BRM, sequence (P51531 whole entry): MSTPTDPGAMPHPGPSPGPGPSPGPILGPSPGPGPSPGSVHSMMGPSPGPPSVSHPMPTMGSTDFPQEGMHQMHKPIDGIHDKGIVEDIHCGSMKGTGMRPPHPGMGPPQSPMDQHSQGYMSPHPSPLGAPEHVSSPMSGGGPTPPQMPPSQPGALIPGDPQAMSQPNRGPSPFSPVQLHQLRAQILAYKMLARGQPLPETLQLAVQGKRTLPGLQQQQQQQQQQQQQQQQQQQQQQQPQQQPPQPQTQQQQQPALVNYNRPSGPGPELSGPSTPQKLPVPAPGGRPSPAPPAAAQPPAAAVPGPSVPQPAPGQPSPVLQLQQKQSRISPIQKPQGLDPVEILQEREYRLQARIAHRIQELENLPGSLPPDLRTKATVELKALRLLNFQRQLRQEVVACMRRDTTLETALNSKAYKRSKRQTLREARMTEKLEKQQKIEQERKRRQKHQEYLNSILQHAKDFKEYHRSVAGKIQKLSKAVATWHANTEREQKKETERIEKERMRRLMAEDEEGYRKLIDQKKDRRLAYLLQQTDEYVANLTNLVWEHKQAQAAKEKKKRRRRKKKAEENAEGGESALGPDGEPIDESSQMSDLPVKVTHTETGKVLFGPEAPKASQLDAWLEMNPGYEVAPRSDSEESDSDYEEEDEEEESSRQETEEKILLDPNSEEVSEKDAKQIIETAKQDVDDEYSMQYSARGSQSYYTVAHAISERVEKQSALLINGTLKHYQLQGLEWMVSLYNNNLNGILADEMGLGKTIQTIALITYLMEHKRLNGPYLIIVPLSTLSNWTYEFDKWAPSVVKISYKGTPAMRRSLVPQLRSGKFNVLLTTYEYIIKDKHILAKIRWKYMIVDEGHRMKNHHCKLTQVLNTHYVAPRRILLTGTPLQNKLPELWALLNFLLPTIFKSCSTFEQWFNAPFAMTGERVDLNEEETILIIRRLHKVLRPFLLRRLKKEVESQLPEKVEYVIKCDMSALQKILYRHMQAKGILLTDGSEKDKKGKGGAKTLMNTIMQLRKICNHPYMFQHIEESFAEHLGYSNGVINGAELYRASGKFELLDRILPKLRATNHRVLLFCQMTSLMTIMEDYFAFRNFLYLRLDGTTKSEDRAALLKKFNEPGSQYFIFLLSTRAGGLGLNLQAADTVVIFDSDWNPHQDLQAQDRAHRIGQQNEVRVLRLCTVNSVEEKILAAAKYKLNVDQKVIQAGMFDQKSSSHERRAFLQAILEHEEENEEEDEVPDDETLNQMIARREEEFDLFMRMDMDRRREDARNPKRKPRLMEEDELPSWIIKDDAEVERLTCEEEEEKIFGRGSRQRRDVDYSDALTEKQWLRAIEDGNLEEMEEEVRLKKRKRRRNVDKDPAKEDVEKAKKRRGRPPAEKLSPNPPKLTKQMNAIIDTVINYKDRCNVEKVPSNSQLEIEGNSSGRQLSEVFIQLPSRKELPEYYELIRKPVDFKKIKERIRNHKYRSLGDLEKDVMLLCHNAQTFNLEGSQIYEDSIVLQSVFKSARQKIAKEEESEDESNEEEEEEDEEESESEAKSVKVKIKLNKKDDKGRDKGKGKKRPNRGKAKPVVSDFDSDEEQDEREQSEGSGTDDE

As for `CN1CCc2ccc(-c3csc(NC(=O)CNC(=O)c4ccc5c(c4)[C@@](C)(CO)CC5)n3)cc2C1=O` [Compound 258, (S)-3-(hydroxymethyl)-3-methyl-N-(2-((4-(2-methyl-1-oxo-1,2,3,4-tetrahydroisoquinolin-7-yl)thiazol-2-yl)amino)-2-oxoethyl)-2,3-dihydro-1H-indene-5-carboxamide], in experiment [1], the “BRM Max % Inhibition” value is greater than 80% and the IC50 was in the range of 0.1 to 1 µM. Besides, in experiment [2] (setting [3]), the “BRG1 Max % Inhibition” value is listed as greater than 60% and the IC50 was in the range of 1 to 5 µM.

Take `C[C@]1(CO)CCc2ccc(C(=O)NCC(=O)Nc3nc(-c4ccn5ccnc5c4)cs3)cc21` [Compound 259, (S)-3-(hydroxymethyl)-N-(2-((4-(imidazo[1,2-a]pyridin-7-yl)thiazol-2-yl)amino)-2-oxoethyl)-3-methyl-2,3-dihydro-1H-indene-5-carboxamide]: in experiment [1], the “BRM Max % Inhibition” value was greater than 50% and the IC50 fell in the range of 1 to 5 µM. Besides, in experiment [2] (setting [3]), the “BRG1 Max % Inhibition” value is recorded as less than 30% and the IC50 is greater than 5 µM.

With `CN1C(=O)CCc2ccc(-c3csc(NC(=O)CNC(=O)c4ccc5c(c4)[C@@](C)(CO)CC5)n3)cc21` [Compound 260, (S)-3-(hydroxymethyl)-3-methyl-N-(2-((4-(1-methyl-2-oxo-1,2,3,4-tetrahydroquinolin-7-yl)thiazol-2-yl)amino)-2-oxoethyl)-2,3-dihydro-1H-indene-5-carboxamide], in experiment [1], the “BRM Max % Inhibition” value is greater than 60% and the concentration for half-maximal inhibition (IC50) was in the range of 1 to 5 µM. Besides, the IC50 in experiment [2] (setting [3]) was greater than 5 µM. Besides, the Emax in experiment [2] (setting [4]) was greater than 30%.

`Cn1ncc2ccc(-c3csc(NC(=O)CNC(=O)c4ccc5c(c4)[C@@](C)(CO)CC5)n3)cc21` [Compound 261, (S)-3-(hydroxymethyl)-3-methyl-N-(2-((4-(1-methyl-1H-indazol-6-yl)thiazol-2-yl)amino)-2-oxoethyl)-2,3-dihydro-1H-indene-5-carboxamide]: in experiment [1], the “BRM Max % Inhibition” value was greater than 60% and the concentration for half-maximal inhibition (IC50) lay within 1 to 5 µM. Besides, in experiment [2] (setting [3]), the IC50 is greater than 5 µM. Further, the Emax in experiment [2] (setting [4]) was greater than 30%.

For the molecule `C[C@@H]1CN(c2cccc(-c3csc(NC(=O)CNC(=O)c4ccc5c(c4)[C@@](C)(C#N)CC5)n3)n2)C[C@H](C)O1` [Compound 262, (S)-3-cyano-N-(2-((4-(6-((cis)-2,6-dimethylmorpholino)pyridin-2-yl)thiazol-2-yl)amino)-2-oxoethyl)-3-methyl-2,3-dihydro-1H-indene-5-carboxamide], in experiment [1], the “BRM Max % Inhibition” value is recorded as greater than 80% and the IC50 was 1 to 5 µM. For the same molecule, in experiment [2] (setting [3]), the IC50 was in the range of 1 to 5 µM. Moreover, the Emax in experiment [2] (setting [4]) was greater than 50%.

On to `Cc1cnc(O)c(-c2cccc(-c3csc(NC(=O)CNC(=O)c4ccc5c(c4)[C@](C)(CO)CC5)n3)n2)c1` [Compound 263, (R)-N-(2-((4-(2′-hydroxy-5′-methyl-[2,3′-bipyridin]-6-yl)thiazol-2-yl)amino)-2-oxoethyl)-3-(hydroxymethyl)-3-methyl-2,3-dihydro-1H-indene-5-carboxamide], for which the “BRM Max % Inhibition” value in experiment [1] is greater than 80%. The IC50 in experiment [1] lay within 0.1 to 1 µM; in experiment [2] (setting [3]) it was 1 to 5 µM. Further, the Emax in experiment [2] (setting [4]) is greater than 40%.

For `C[C@@]1(CO)CCc2ccc(C(=O)NCC(=O)Nc3nc(-c4cccc(-c5cccnc5O)n4)cs3)cc21` [Compound 264, (R)-N-(2-((4-(2′-hydroxy-[2,3′-bipyridin]-6-yl)thiazol-2-yl)amino)-2-oxoethyl)-3-(hydroxymethyl)-3-methyl-2,3-dihydro-1H-indene-5-carboxamide], the “BRM Max % Inhibition” value in experiment [1] is reported as greater than 70%. Further, the IC50 in experiment [1] is 1 to 5 µM; in experiment [2] (setting [3]) it was greater than 5 µM. Further, the Emax in experiment [2] (setting [4]) was less than 30%.

In the case of `Cn1ccc(-c2cccc(-c3csc(NC(=O)CNC(=O)c4ccc5c(c4)[C@](C)(CO)CC5)n3)n2)n1` [Compound 265, (3R)-3-(hydroxymethyl)-3-methyl-N-[2-[[4-[6-(1-methylpyrazol-3-yl)-2-pyridyl]thiazol-2-yl]amino]-2-oxo-ethyl]indane-5-carboxamide], in experiment [1], the “BRM Max % Inhibition” value was greater than 70% and the IC50 fell in the range of 1 to 5 µM. Also, the IC50 in experiment [2] (setting [3]) was greater than 5 µM. The Emax in experiment [2] (setting [4]) is greater than 30%.

As for `Cc1cc(-c2cccc(-c3csc(NC(=O)CNC(=O)c4ccc5c(c4)[C@@](C)(C#N)CC5)n3)n2)ncn1` [Compound 266, (3S)-3-cyano-3-methyl-N-[2-[[4-[6-(6-methylpyrimidin-4-yl)-2-pyridyl]thiazol-2-yl]amino]-2-oxo-ethyl]indane-5-carboxamide], in experiment [1], the “BRM Max % Inhibition” value is on record as greater than 60% and the IC50 fell in the range of 1 to 5 µM. For the same molecule, the IC50 in experiment [2] (setting [3]) was greater than 5 µM. Also, the Emax in experiment [2] (setting [4]) is greater than 30%.

Consider `Cc1cc(-c2cccc(-c3csc(NC(=O)CNC(=O)c4ccc5c(c4)[C@](C)(C#N)CC5)n3)n2)ncn1` [Compound 267, (3R)-3-cyano-3-methyl-N-[2-[[4-[6-(6-methylpyrimidin-4-yl)-2-pyridyl]thiazol-2-yl]amino]-2-oxo-ethyl]indane-5-carboxamide], for which, in experiment [1], the “BRM Max % Inhibition” value is greater than 95% and the IC50 was less than 0.1 µM. Further, the IC50 in experiment [2] (setting [3]) is less than 0.1 µM. Besides, the Emax in experiment [2] (setting [4]) was greater than 95%.

Turning to `Cc1nccc(-c2cccc(-c3csc(NC(=O)CNC(=O)c4ccc5c(c4)[C@@](C)(C#N)CC5)n3)n2)n1` [Compound 268, (3S)-3-cyano-3-methyl-N-[2-[[4-[6-(2-methylpyrimidin-4-yl)-2-pyridyl]thiazol-2-yl]amino]-2-oxo-ethyl]indane-5-carboxamide], in experiment [1], the “BRM Max % Inhibition” value is reported as greater than 80%. In addition, the figures for the IC50 in experiment [1] and in experiment [2] (setting [3]) were 0.1 to 1 µM and 1 to 5 µM, respectively. The Emax in experiment [2] (setting [4]) is greater than 50%.

As for `COc1cccc(-c2csc(NC(=O)CNC(=O)c3cc(F)c4c(c3)[C@@](C)(C#N)COC4)n2)c1` [Compound 269, (S)-4-cyano-8-fluoro-N-(2-((4-(3-methoxyphenyl)thiazol-2-yl)amino)-2-oxoethyl)-4-methylisochromane-6-carboxamide], the “BRM Max % Inhibition” value in experiment [1] was greater than 90%. Further, the results for the concentration for half-maximal inhibition (IC50) in experiment [1] and in experiment [2] (setting [3]) were 0.1 to 1 µM and greater than 5 µM, respectively. In addition, in experiment [2] (setting [4]), the Emax is greater than 90%.

Consider `COc1cccc(-c2csc(NC(=O)CNC(=O)c3cc(F)c4c(c3)[C@](C)(C#N)COC4)n2)c1` [Compound 270, (R)-4-cyano-8-fluoro-N-(2-((4-(3-methoxyphenyl)thiazol-2-yl)amino)-2-oxoethyl)-4-methylisochromane-6-carboxamide], for which, in experiment [1], the “BRM Max % Inhibition” value is reported as greater than 95% and the IC50 is less than 0.1 µM. The IC50 in experiment [2] (setting [3]) was in the range of 0.1 to 1 µM. The Emax in experiment [2] (setting [4]) was greater than 95%.

`CC1OCCc2cc(C(=O)NCC(=O)Nc3nc(-c4cccc(N5C[C@@H](C)O[C@@H](C)C5)n4)cs3)ccc21` (stereo partly drawn) [Compound 271, N-(2-((4-(6-((cis)-2,6-dimethylmorpholino)pyridin-2-yl)thiazol-2-yl)amino)-2-oxoethyl)-1-methylisochromane-6-carboxamide]: in experiment [1], the “BRM Max % Inhibition” value is greater than 85% and the 50% inhibitory concentration (IC50) was in the range of 0.1 to 1 µM. In addition, the IC50 in experiment [2] (setting [3]) was in the range of 1 to 5 µM. For the same molecule, in experiment [2] (setting [4]), the Emax was greater than 85%.

For `C[C@@H]1CN(c2cccc(-c3csc(NC(=O)CNC(=O)c4ccc5c(c4)[C@](F)(C(F)F)CCO5)n3)c2)C[C@H](C)O1` [Compound 274, (S)-4-(difluoromethyl)-N-(2-((4-(3-((cis)-2,6-dimethylmorpholino)phenyl)thiazol-2-yl)amino)-2-oxoethyl)-4-fluorochromane-6-carboxamide], in experiment [1], the “BRM Max % Inhibition” value is listed as greater than 95% and the half-maximal inhibitory concentration (IC50) is less than 0.1 µM. Besides, in experiment [2] (setting [3]), the IC50 is less than 0.1 µM. Further, the Emax in experiment [2] (setting [4]) was greater than 95%.

In the case of `C[C@@H]1CN(c2cccc(-c3csc(NC(=O)CNC(=O)c4ccc5c(c4)[C@@](F)(C(F)F)CCO5)n3)c2)C[C@H](C)O1` [Compound 275, (R)-4-(difluoromethyl)-N-(2-((4-(3-((cis)-2,6-dimethylmorpholino)phenyl)thiazol-2-yl)amino)-2-oxoethyl)-4-fluorochromane-6-carboxamide], in experiment [1], the “BRM Max % Inhibition” value is reported as greater than 95%. Further, the IC50 in experiment [1] is less than 0.1 µM; in experiment [2] (setting [3]) it was 0.1 to 1 µM. Also, the Emax in experiment [2] (setting [4]) was greater than 95%.

For the molecule `O=C(CNC(=O)c1ccc2c(c1)[C@](F)(C(F)F)COC2)Nc1nc(-c2cc(F)cc(N3CCC3)c2)cs1` [Compound 276, (R)-N-(2-((4-(3-(azetidin-1-yl)-5-fluorophenyl)thiazol-2-yl)amino)-2-oxoethyl)-4-(difluoromethyl)-4-fluoroisochromane-6-carboxamide], in experiment [1], the “BRM Max % Inhibition” value was greater than 95%. The IC50 in experiment [1] and in experiment [2] (setting [3]) was less than 0.1 µM each time. Also, the Emax in experiment [2] (setting [4]) was greater than 95%.

Take `O=C(CNC(=O)c1ccc2c(c1)[C@@](F)(C(F)F)COC2)Nc1nc(-c2cc(F)cc(N3CCC3)c2)cs1` [Compound 277, (S)-N-(2-((4-(3-(azetidin-1-yl)-5-fluorophenyl)thiazol-2-yl)amino)-2-oxoethyl)-4-(difluoromethyl)-4-fluoroisochromane-6-carboxamide]: in experiment [1], the “BRM Max % Inhibition” value is given as greater than 95% and the IC50 was less than 0.1 µM. The IC50 in experiment [2] (setting [3]) is less than 0.1 µM. In addition, in experiment [2] (setting [4]), the Emax was greater than 95%.

With `COc1cccc(-c2csc(NC(=O)CNC(=O)c3ccc4c(c3)[C@@](C)(F)CCOC4)n2)c1` [Compound 278, (S)-5-fluoro-N-(2-((4-(3-methoxyphenyl)thiazol-2-yl)amino)-2-oxoethyl)-5-methyl-1,3,4,5-tetrahydrobenzo[c]oxepine-7-carboxamide], in experiment [1], the “BRM Max % Inhibition” value is reported as greater than 90% and the IC50 is 0.1 to 1 µM. Besides, the IC50 in experiment [2] (setting [3]) is greater than 5 µM. Besides, in experiment [2] (read-out: BRG1 Max % Inhibition, ATPase catalytic activity, ADP-Glo), the Emax is greater than 90%.

Turning to `COc1cccc(-c2csc(NC(=O)CNC(=O)c3ccc4c(c3)[C@](C)(F)CCOC4)n2)c1` [Compound 279, (R)-5-fluoro-N-(2-((4-(3-methoxyphenyl)thiazol-2-yl)amino)-2-oxoethyl)-5-methyl-1,3,4,5-tetrahydrobenzo[c]oxepine-7-carboxamide], in experiment [1], the “BRM Max % Inhibition” value is given as greater than 90% and the IC50 lay in the range of 0.1 to 1 µM. In addition, the concentration for half-maximal inhibition (IC50) in experiment [2] (setting [3]) fell in the range of 0.1 to 1 µM. Moreover, in experiment [2] (setting [4]), the Emax is greater than 90%.
